# Biological target: binding of biotinylated human growth hormone (b-hGH) to the extracellular domain of its receptor (Homo sapiens, UniProt P01241)
# Assay: ELISA of binding of biotinylated human growth hormone (b-hGH) to the extracellular domain of its receptor
# Details: inhibition of b-hGH (about 1.5 nM) binding to receptor-coated plates; compounds re-tested at multiple concentrations
# Experimental: A collection of heterocyclic aromatic compounds (384 total; 1 mmol each) was obtained from Aldrich Chemical Company or prepared as described in Holan et al., J. Chem Soc. C, 20-25 (1967)) incorporated herein by reference. Each compound was dissolved in dimethyl sulfoxide (DMSO) to yield a 100-mM solution and arrayed in 96-well polypropylene deep-well plates (Beckman). Dilutions (10-fold in DMSO) were prepared from the parent plates; these 10-mM stocks were then diluted 50-fold in the screening assay as described below (200 μM final concentration; 2% DMSO).
# Human growth hormone (100 μM) in phosphate-buffered saline (PBS) was treated with 2 molar equivalents of EZ-Link Sulfo-NHS-LC-biotin™ (Pierce 21335™) according to the manufacturer's instructions. Binding of the biotinylated human growth hormone (b-hGH) to the extracellular domain of its receptor was assayed in an ELISA format. Briefly, Nunc Maxi-Sorb™ 96-well plates were treated with a solution of the receptor (2 μg/mL) in phosphate-buffered saline (PBS) overnight at 4° C. Plates were then blocked with a 0.2% solution of bovine serum albumin (BSA; Sigma A-7638) in PBS for 2 hours at room temperature. An appropriate dilution of b-hGH (generally about 1.5 nM final concentration in PBS containing 0.05% Tween-20 T detergent) was added to polypropylene plates containing aliquots of the screening collection (147 μL b-hGH to 3 μL compound in DMSO) or DMSO alone, and the mixtures were allowed to equilibrate at room temperature for approximately 45 min. These mixtures were then transferred to the receptor-coated plates and allowed to stand for 15 min. Plates were washed (10 times) with PBS/Tween-20™. Streptavidin-HRP conjugate (Zymed Laboratories 43-4323™) followed by TMB peroxidase reagent (Kirkegaard & Perry Laboratories 50-76-03™) was used to detect bound b-hGH. Several potential inhibitor compounds were re-tested at multiple concentrations. Table 1 below provides IC50 of the compounds tested.
# Chain of binding of biotinylated human growth hormone (b-hGH) to the extracellular domain of its receptor (P01241 27-217): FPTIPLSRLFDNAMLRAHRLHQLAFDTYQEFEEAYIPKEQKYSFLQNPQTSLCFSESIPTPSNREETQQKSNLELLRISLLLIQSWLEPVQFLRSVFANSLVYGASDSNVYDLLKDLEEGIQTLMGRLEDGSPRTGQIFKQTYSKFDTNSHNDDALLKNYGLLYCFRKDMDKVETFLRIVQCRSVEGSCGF
row,Structure (SMILES),IC50 [µM]
1,Cc1ccc2[nH]c(C(Cl)(Cl)Cl)nc2c1 [(iv)],98
2,ClC(Cl)(Cl)c1nc2ccccc2o1 [(ix)],> 1000
3,Clc1cc2nc(C(Cl)(Cl)Cl)[nH]c2cc1Cl [(v)],51
4,ClC(Cl)(Cl)c1nc2ccccc2[nH]1 [(ii)],170
5,Cn1c(C(Cl)(Cl)Cl)nc2ccccc21 [(iii)],150
6,Clc1ccc2nc(C(Cl)(Cl)Cl)[nH]c2c1 [(i)],77

# Further lines, results first:
row,IC50 [µM],Structure (SMILES)
1,> 1000,c1ccc2[nH]c(-c3cscn3)nc2c1 [(xii)]
2,> 1000,Cc1nc2cc(Cl)ccc2[nH]1 [(viii)]
3,> 1000,Cc1ccc2[nH]cnc2c1 [(xiii)]
4,> 1000,Cc1nc2ccccc2[nH]1 [(xi)]
5,> 1000,Clc1ccc2[nH]cnc2c1 [(vii)]
6,> 1000,FC(F)(F)c1nc2cc(Cl)ccc2[nH]1 [(vi)]
7,> 1000,ClC(Cl)(Cl)c1nc2ccccc2s1 [(x)]
